From patent US20260226048A1, “MULTI-CYCLIC IRAK AND FLT3 INHIBITING COMPOUNDS AND USES THEREOF” (CHILDREN'S HOSPITAL MEDICAL CENTER, priority 2023, published 2026)

What was measured:
FLT3 N841I = molecular target: T1, FLT3 N841I (Homo sapiens, UniProt P36888, N841I); assay: DiscoverX KINOMEscan competition binding assay, FLT3 N841I; details: 11-point 3-fold dilution
T1 construct: purchased DiscoverX (KINOMEscan); host or cells: E. coli BL21-derived host (T7 phage) or HEK-293
T1 sequence (P36888 27-993 N841I): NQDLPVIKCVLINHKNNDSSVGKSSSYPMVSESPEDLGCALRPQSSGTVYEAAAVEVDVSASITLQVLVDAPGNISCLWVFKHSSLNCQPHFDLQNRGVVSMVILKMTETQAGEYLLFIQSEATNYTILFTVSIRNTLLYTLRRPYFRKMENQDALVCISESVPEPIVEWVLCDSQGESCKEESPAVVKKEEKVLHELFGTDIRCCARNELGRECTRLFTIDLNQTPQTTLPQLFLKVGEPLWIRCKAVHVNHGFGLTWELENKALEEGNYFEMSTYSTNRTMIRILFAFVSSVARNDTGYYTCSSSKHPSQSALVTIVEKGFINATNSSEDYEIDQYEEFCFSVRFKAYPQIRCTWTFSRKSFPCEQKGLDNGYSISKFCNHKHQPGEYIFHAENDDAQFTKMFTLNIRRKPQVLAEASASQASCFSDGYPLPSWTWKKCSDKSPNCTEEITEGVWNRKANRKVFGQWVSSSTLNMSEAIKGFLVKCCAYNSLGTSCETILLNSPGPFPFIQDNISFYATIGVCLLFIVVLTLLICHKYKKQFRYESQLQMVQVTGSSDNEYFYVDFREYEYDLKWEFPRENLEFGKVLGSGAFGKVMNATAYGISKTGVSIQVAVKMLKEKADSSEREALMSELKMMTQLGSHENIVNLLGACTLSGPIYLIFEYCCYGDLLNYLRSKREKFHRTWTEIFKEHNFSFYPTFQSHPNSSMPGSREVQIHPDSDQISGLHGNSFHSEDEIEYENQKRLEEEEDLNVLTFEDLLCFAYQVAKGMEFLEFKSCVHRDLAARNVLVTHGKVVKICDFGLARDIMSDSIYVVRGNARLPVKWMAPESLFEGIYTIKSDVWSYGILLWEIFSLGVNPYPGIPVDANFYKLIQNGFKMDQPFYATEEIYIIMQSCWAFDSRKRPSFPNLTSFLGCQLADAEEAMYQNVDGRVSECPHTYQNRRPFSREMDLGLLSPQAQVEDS
Description: (§1) […]. […] As a result, the data report thermodynamic interaction affinities (Kd values), rather than IC50 values that are dependent on ATP concentrations. The assay uses a DNA-tagged version of the protein kinase, and an immobilized ligand bound to a solid support. Compounds that directly or indirectly prevent kinase binding to the immobilized ligand reduce the amount of kinase captured on the solid support, which is detected using an ultra-sensitive qPCR method. Affinity constants reported from the assay have been reported to be independent of the immobilized ligand used that is coupled to the solid support (See supplemental information in Fabian, M. A. et. al., (2005) Nat. Biotechnol. 23, 329-336; Wodicka, L. M. et. al., (2010) Chem. Biol. 17, 1241-1249.)
(§2) Kinase-tagged T7 phage strains were prepared in an E. coli host derived from the BL21 strain. E. coli were grown to log-phase and infected with T7 phage and incubated with shaking at 32° C. until lysis. The lysates were centrifuged and filtered to remove cell debris. The remaining kinases were produced in HEK-293 cells and subsequently tagged with DNA for qPCR detection. Streptavidin-coated magnetic beads were treated with biotinylated small molecule ligands for 30 minutes at room temperature to generate affinity resins for kinase assays. The liganded beads were blocked with excess biotin and washed with blocking buffer (SeaBlock (Pierce), 1% BSA, 0.05% Tween 20, 1 mM DTT) to remove unbound ligand and to reduce non-specific binding. […] Test compounds were prepared as 111× stocks in 100% DMSO. Kds were determined using an 11-point 3-fold compound dilution series with three DMSO control points. All compounds for Kd measurements are distributed by acoustic transfer (non-contact dispensing) in 100% DMSO. The compounds were then diluted directly into the assays such that the final concentration of DMSO was 0.9%. All reactions were performed in polypropylene 384-well plates. Each was a final volume of 0.02 mL. […] The kinase concentration in the eluates was measured by qPCR.
(§3) Binding constants (Kds) were calculated with a standard dose-response curve using the Hill equation. The Hill Slope was set to −1. Curves were fitted using a non-linear least square fit with the Levenberg-Marquardt algorithm.

FLT3 Autoinh. = molecular target: T2, FLT3 Autoinh. (Homo sapiens, UniProt P36888); assay: DiscoverX KINOMEscan competition binding assay, FLT3 Autoinh.; details: 11-point 3-fold dilution
T2 construct: purchased DiscoverX (KINOMEscan); host or cells: E. coli BL21-derived host (T7 phage) or HEK-293
T2 sequence (P36888 564-993 limits assumed): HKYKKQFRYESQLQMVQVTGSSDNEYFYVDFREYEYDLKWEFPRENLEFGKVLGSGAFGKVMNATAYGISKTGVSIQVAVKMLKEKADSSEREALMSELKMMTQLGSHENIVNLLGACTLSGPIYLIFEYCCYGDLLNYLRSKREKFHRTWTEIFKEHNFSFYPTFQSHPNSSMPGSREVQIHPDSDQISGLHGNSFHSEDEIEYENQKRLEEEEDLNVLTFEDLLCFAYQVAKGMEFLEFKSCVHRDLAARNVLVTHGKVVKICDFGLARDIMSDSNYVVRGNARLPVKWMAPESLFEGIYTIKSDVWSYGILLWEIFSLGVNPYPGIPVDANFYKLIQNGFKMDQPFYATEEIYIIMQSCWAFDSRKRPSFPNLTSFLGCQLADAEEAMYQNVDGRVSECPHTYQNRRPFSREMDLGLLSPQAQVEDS
Description: as §1, §2, §3

SMILES | Kd (FLT3 N841I) [nM] | Kd (FLT3 Autoinh.) [nM]
COc1cc2ncc(-c3nc(N[C@H]4CNCC[C@@H]4F)ncc3F)n2nc1N1CCCS1(=O)=O [Compound 112a, 2-(3-(5-fluoro-2-(((3S,4S)-4-fluoropiperidin-3-yl)amino)pyrimidin-4-yl)-7-methoxyimidazo[1,2-b]pyridazin-6-yl)isothiazolidine 1,1-dioxide] | 0.2 | 2.7
COc1cc2ncc(-c3nc(N[C@H]4CNCC[C@@H]4F)ncc3F)n2nc1C(C)(C)O [Compound 45a, 2-(3-(5-fluoro-2-(((3S,4S)-4-fluoropiperidin-3-yl)amino)pyrimidin-4-yl)-7-methoxyimidazo[1,2-b]pyridazin-6-yl)propan-2-ol] | 1.1 | 11
COc1cc2ncc(-c3nc(N[C@H]4CNCC[C@@H]4F)ncc3F)n2nc1C1COC1 [Compound 92a, 5-fluoro-N-((3S,4S)-4-fluoropiperidin-3-yl)-4-(7-methoxy-6-(oxetan-3-yl)imidazo[1,2-b]pyridazin-3-yl)pyrimidin-2-amine] | 0.18 | 3.3
FC(F)COc1cc2ncc(-c3ccnc(N[C@H]4CNCC[C@@H]4F)n3)n2nc1C1CC1 [Compound 4a, 4-(6-cyclopropyl-7-(2,2-difluoroethoxy)imidazo[1,2-b]pyridazin-3-yl)-N-((3 S,4S)-4-fluoropiperidin-3-yl)pyrimidin-2-amine] | 0.88 | 21
CC(C)(O)c1ccc2ncc(-c3nc(N[C@H]4CNCC[C@@H]4F)ncc3F)n2c1 [Compound 46a, 2-(3-(5-fluoro-2-(((3S,4S)-4-fluoropiperidin-3-yl)amino)pyrimidin-4-yl)imidazo[1,2-a]pyridin-6-yl)propan-2-ol] | 3.2 | 7.1
COc1cc2ncc(-c3nc(N[C@H]4CNCC[C@@H]4F)ncc3F)n2nc1C1CC1 [Compound 1a, 4-(6-cyclopropyl-7-methoxyimidazo[1,2-b]pyridazin-3-yl)-5-fluoro-N-((3S,4S)-4-fluoropiperidin-3-yl)pyrimidin-2-amine] | < 0.17 | 2.2
CC(C)(O)c1cn2c(-c3nc(N[C@H]4CNCC[C@@H]4F)ncc3F)cnc2cn1 [Compound 100a, 2-(3-(5-fluoro-2-(((3S,4S)-4-fluoropiperidin-3-yl)amino)pyrimidin-4-yl)imidazo[1,2-a]pyrazin-6-yl)propan-2-ol] | 16 | 57
